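Where inhibition never reached the appropriate level, the endpoint shown equals the highest concentration tested. Otherwise, values were interpolated linearly from a five-concentration, 48-hour dose response in 96-well plates. GI50 = concentration required for 50% inhibition of growth.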 The source made the active and inactive calls. Rule as the data show it: active = GI50 up to about 1.1 µM and inactive = higher.
Experiments:
Experiment in all cases: NCI-60 cell line screen, 48 h
EKVX = tested on: EKVX
HOP-92 = tested on: HOP-92
A549 = tested on: A549
COLO 205 = tested on: COLO 205
TK-10 = tested on: TK-10
Malme-3M = tested on: Malme-3M
OVCAR-5 = tested on: OVCAR-5
RXF 393 = tested on: RXF 393
SF-539 = tested on: SF-539
CCRF-CEM = tested on: CCRF-CEM
SK-MEL-28 = tested on: SK-MEL-28
SN12C = tested on: SN12C
NCI-H226 = tested on: NCI-H226
MCF7 = tested on: MCF7
ACHN = tested on: ACHN
OVCAR-3 = tested on: OVCAR-3
NCI-H522 = tested on: NCI-H522
M14 = tested on: M14
IGROV-1 = tested on: IGROV-1
MDA-MB-435 = tested on: MDA-MB-435
SW-620 = tested on: SW-620
SF-268 = tested on: SF-268
SF-295 = tested on: SF-295
HCT-15 = tested on: HCT-15
MDA-MB-231 = tested on: MDA-MB-231
RPMI-8226 = tested on: RPMI-8226
HCC 2998 = tested on: HCC 2998
KM12 = tested on: KM12
NCI-H23 = tested on: NCI-H23
SNB-75 = tested on: SNB-75
OVCAR-4 = tested on: OVCAR-4
NCI-H460 = tested on: NCI-H460
PC-3 = tested on: PC-3
SNB-19 = tested on: SNB-19
CAKI-1 = tested on: CAKI-1
786-0 = tested on: 786-0
NCI/ADR-RES = tested on: NCI/ADR-RES
HOP-62 = tested on: HOP-62
BT-549 = tested on: BT-549
SK-MEL-2 = tested on: SK-MEL-2
SK-MEL-5 = tested on: SK-MEL-5
OVCAR-8 = tested on: OVCAR-8
MDA-N = tested on: MDA-N
A498 = tested on: A498
UO-31 = tested on: UO-31
SK-OV-3 = tested on: SK-OV-3
K562 = tested on: K562
MOLT-4 = tested on: MOLT-4
U-251 = tested on: U-251
LOX IMVI = tested on: LOX IMVI
SR = tested on: SR
HCT-116 = tested on: HCT-116
T47D = tested on: T47D
UACC-257 = tested on: UACC-257
DU-145 = tested on: DU-145
HT-29 = tested on: HT-29
HL-60 = tested on: HL-60
UACC-62 = tested on: UACC-62
Hs-578T = tested on: Hs-578T

CCCCC(=O)Nc1ccc2cc(C(=O)OC)c(=O)[nH]c2n1
GI50 (EKVX): > 100 µM (inactive) | GI50 (HOP-92): > 100 µM (inactive) | GI50 (A549): > 100 µM (inactive) | GI50 (COLO 205): > 100 µM (inactive) | GI50 (TK-10): > 100 µM (inactive) | GI50 (Malme-3M): > 100 µM (inactive) | GI50 (OVCAR-5): > 100 µM (inactive) | GI50 (RXF 393): > 100 µM (inactive) | GI50 (SF-539): > 100 µM (inactive) | GI50 (CCRF-CEM): 59.4 µM (inactive) | GI50 (SK-MEL-28): > 100 µM (inactive) | GI50 (SN12C): > 100 µM (inactive) | GI50 (NCI-H226): > 100 µM (inactive) | GI50 (MCF7): > 100 µM (inactive) | GI50 (ACHN): > 100 µM (inactive) | GI50 (OVCAR-3): > 100 µM (inactive) | GI50 (NCI-H522): > 100 µM (inactive) | GI50 (M14): > 100 µM (inactive) | GI50 (IGROV-1): > 100 µM (inactive) | GI50 (MDA-MB-435): > 100 µM (inactive) | GI50 (SW-620): > 100 µM (inactive) | GI50 (SF-268): > 100 µM (inactive) | GI50 (SF-295): > 100 µM (inactive) | GI50 (HCT-15): > 100 µM | GI50 (MDA-MB-231): > 100 µM (inactive) | GI50 (RPMI-8226): > 100 µM (inactive) | GI50 (HCC 2998): > 100 µM (inactive) | GI50 (KM12): > 100 µM (inactive) | GI50 (NCI-H23): > 100 µM (inactive) | GI50 (SNB-75): > 100 µM (inactive) | GI50 (OVCAR-4): > 100 µM (inactive) | GI50 (NCI-H460): > 100 µM (inactive) | GI50 (PC-3): > 100 µM (inactive) | GI50 (SNB-19): > 100 µM (inactive) | GI50 (CAKI-1): > 100 µM (inactive) | GI50 (786-0): > 100 µM (inactive) | GI50 (NCI/ADR-RES): > 100 µM (inactive) | GI50 (HOP-62): > 100 µM (inactive) | GI50 (BT-549): > 100 µM (inactive) | GI50 (SK-MEL-2): > 100 µM (inactive) | GI50 (SK-MEL-5): > 100 µM (inactive) | GI50 (OVCAR-8): > 100 µM (inactive) | GI50 (MDA-N): > 100 µM (inactive) | GI50 (A498): > 100 µM (inactive) | GI50 (UO-31): > 100 µM (inactive) | GI50 (SK-OV-3): > 100 µM (inactive) | GI50 (K562): > 100 µM (inactive) | GI50 (MOLT-4): > 100 µM (inactive) | GI50 (U-251): > 100 µM (inactive) | GI50 (LOX IMVI): > 100 µM (inactive) | GI50 (SR): > 100 µM (inactive) | GI50 (HCT-116): > 100 µM (inactive) | GI50 (T47D): > 100 µM (inactive) | GI50 (UACC-257): > 100 µM (inactive)

CCOC(=O)C1=CC(C)(C(=O)OCC)Nc2c(nc(SC)n(C)c2=O)N1 (stereo not given)
GI50 (EKVX): > 10 µM (inactive) | GI50 (HOP-92): > 10 µM (inactive) | GI50 (A549): > 10 µM (inactive) | GI50 (COLO 205): > 10 µM (inactive) | GI50 (TK-10): > 10 µM (inactive) | GI50 (Malme-3M): > 10 µM (inactive) | GI50 (OVCAR-5): > 10 µM (inactive) | GI50 (SF-539): > 10 µM (inactive) | GI50 (CCRF-CEM): > 10 µM (inactive) | GI50 (SK-MEL-28): > 10 µM (inactive) | GI50 (SN12C): > 10 µM (inactive) | GI50 (NCI-H226): > 10 µM (inactive) | GI50 (MCF7): > 10 µM (inactive) | GI50 (ACHN): > 10 µM (inactive) | GI50 (OVCAR-3): > 10 µM (inactive) | GI50 (NCI-H522): > 10 µM (inactive) | GI50 (M14): > 10 µM (inactive) | GI50 (IGROV-1): > 10 µM (inactive) | GI50 (MDA-MB-435): > 10 µM (inactive) | GI50 (SW-620): > 10 µM (inactive) | GI50 (SF-268): > 10 µM (inactive) | GI50 (SF-295): > 10 µM (inactive) | GI50 (HCT-15): > 10 µM | GI50 (DU-145): > 10 µM (inactive) | GI50 (MDA-MB-231): > 10 µM (inactive) | GI50 (RPMI-8226): > 10 µM (inactive) | GI50 (HCC 2998): > 10 µM (inactive) | GI50 (KM12): > 10 µM (inactive) | GI50 (NCI-H23): > 10 µM (inactive) | GI50 (SNB-75): > 10 µM (inactive) | GI50 (OVCAR-4): > 10 µM (inactive) | GI50 (NCI-H460): > 10 µM (inactive) | GI50 (PC-3): > 10 µM (inactive) | GI50 (SNB-19): > 10 µM (inactive) | GI50 (CAKI-1): > 10 µM (inactive) | GI50 (786-0): > 10 µM (inactive) | GI50 (NCI/ADR-RES): > 10 µM (inactive) | GI50 (HOP-62): > 10 µM (inactive) | GI50 (BT-549): > 10 µM (inactive) | GI50 (HT-29): > 10 µM (inactive) | GI50 (SK-MEL-2): > 10 µM (inactive) | GI50 (SK-MEL-5): > 10 µM (inactive) | GI50 (OVCAR-8): > 10 µM (inactive) | GI50 (MDA-N): > 10 µM (inactive) | GI50 (A498): > 10 µM (inactive) | GI50 (UO-31): > 10 µM (inactive) | GI50 (SK-OV-3): > 10 µM (inactive) | GI50 (K562): > 10 µM (inactive) | GI50 (MOLT-4): > 10 µM (inactive) | GI50 (U-251): > 10 µM (inactive) | GI50 (LOX IMVI): > 10 µM (inactive) | GI50 (HCT-116): > 10 µM (inactive) | GI50 (T47D): > 10 µM (inactive) | GI50 (UACC-257): > 10 µM (inactive)

O=C(O)c1ccc2nc(-c3ccccn3)c(-c3ccccn3)nc2c1
GI50 (EKVX): > 100 µM (inactive) | GI50 (HOP-92): > 100 µM (inactive) | GI50 (COLO 205): > 100 µM (inactive) | GI50 (TK-10): > 100 µM (inactive) | GI50 (RXF 393): > 100 µM (inactive) | GI50 (SF-539): > 100 µM (inactive) | GI50 (CCRF-CEM): > 100 µM (inactive) | GI50 (HL-60): > 100 µM (inactive) | GI50 (SK-MEL-28): > 100 µM (inactive) | GI50 (NCI-H226): > 100 µM (inactive) | GI50 (MCF7): > 100 µM (inactive) | GI50 (ACHN): > 100 µM (inactive) | GI50 (M14): > 100 µM (inactive) | GI50 (IGROV-1): > 100 µM (inactive) | GI50 (MDA-MB-435): > 100 µM (inactive) | GI50 (SW-620): > 100 µM (inactive) | GI50 (SF-268): > 100 µM (inactive) | GI50 (SF-295): > 100 µM (inactive) | GI50 (HCT-15): > 100 µM | GI50 (DU-145): > 100 µM (inactive) | GI50 (MDA-MB-231): > 100 µM (inactive) | GI50 (RPMI-8226): > 100 µM (inactive) | GI50 (HCC 2998): > 100 µM (inactive) | GI50 (KM12): > 100 µM (inactive) | GI50 (NCI-H23): > 100 µM (inactive) | GI50 (SNB-75): > 100 µM (inactive) | GI50 (OVCAR-4): > 100 µM (inactive) | GI50 (NCI-H460): > 100 µM (inactive) | GI50 (PC-3): > 100 µM (inactive) | GI50 (SNB-19): > 100 µM (inactive) | GI50 (UACC-62): > 100 µM (inactive) | GI50 (CAKI-1): > 100 µM (inactive) | GI50 (786-0): > 100 µM (inactive) | GI50 (NCI/ADR-RES): > 100 µM (inactive) | GI50 (HOP-62): > 100 µM (inactive) | GI50 (BT-549): > 100 µM (inactive) | GI50 (HT-29): > 100 µM (inactive) | GI50 (SK-MEL-2): > 100 µM (inactive) | GI50 (Hs-578T): > 100 µM (inactive) | GI50 (SK-MEL-5): > 100 µM (inactive) | GI50 (OVCAR-8): > 100 µM (inactive) | GI50 (A498): > 100 µM (inactive) | GI50 (UO-31): > 100 µM (inactive) | GI50 (SK-OV-3): > 100 µM (inactive) | GI50 (K562): > 100 µM (inactive) | GI50 (MOLT-4): > 100 µM (inactive) | GI50 (U-251): > 100 µM (inactive) | GI50 (LOX IMVI): > 100 µM (inactive) | GI50 (SR): > 100 µM (inactive) | GI50 (HCT-116): > 100 µM (inactive) | GI50 (T47D): > 100 µM (inactive) | GI50 (UACC-257): > 100 µM (inactive)

— ChEMBL document CHEMBL1201862, “PubChem BioAssay data set” (2004)
